Data taken from patent publication US20230026277A1, “COMPOSITION FOR PREVENTION, ALLEVIATION, OR TREATMENT OF RESPIRATORY DISEASE” (MICROX CO., LTD., priority 2019, published 2023).

Test system: MKP-1 protein
Test: Western blot of MKP-1 protein in lung tissue of asthma-induced mice
Type: in vivo
Protocol: Also, on days 21 and 28 from the experimental starting date, the mice were put into a plastic box (Plexiglas (Rohm & Haas, Philadelphia, Pa.) exposure chamber; 24.5 cm×40.5 cm×15.0 cm), and 1.5% ovalbumin was evaporated using an ultrasonic nebulizer (NE-U12; output 0.8 mL/min; Omron, Japan), and injected into the box for 30 minutes so that the mice inhaled the evaporated ovalbumin (secondary challenge).
A tissue was extracted from each of the mice manufactured in Experimental Method 1, and finely ground to a cell level. Thereafter, the cells were lysed in a cell lysis buffer containing a protease inhibitor to obtain a cell lysate. The cell lysate was centrifuged to obtain protein. Then, an equivalent amount of the proteins obtained from the cells were loaded on an SDS-PAGE gel and electrophoresed. The proteins present in the electrophoresed gel were transferred to a PVDF membrane. […] The PVDF membrane was washed three times with a TBS-T buffer, and visualized and quantified using an ECL Western blotting detection reagent. […]
Small interfering RNA (siRNA; hereinafter referred to as “MKP-1 siRNA”) against RNA encoding an MKP-1 protein, and control siRNA strands were purchased from SANTA CRUZ (USA). […] An effect of the MKP-1 siRNA interference was determined by measuring an expression level of the MKP-1 protein in the lung tissue through Western blot analysis. […]

CC(=O)NC(=O)CC[C@H](NC(C)=O)C(=O)O [Preparation Example 3, 2,5-diacetamido-5-oxopentanoic acid]
level of the MKP-1 protein (lung tissue, oral daily 200, 500 or 1,000 μg/kg/day, 10 and 30 minutes after secondary challenge, FIG. 7): more increased depending on the concentration
level of the MKP-1 protein (with MKP-1 siRNA treatment, same conditions as [5-1], FIG. 8): did not increase
